Measured values as given in US7737121B2, “Insulin secretion by anthocyanins and anthocyanidins” (Board of Trustees of Michigan State University, priority 2004, dated 2010).

Legend:
INS-1 832/13 cells = experiment: Insulin secretion by INS-1 832/13 pancreatic beta cells (static secretion, insulin by RIA, normalized to cellular protein); assay type: cell-based, rodent; conditions: for fold increase in insulin secretion: versus untreated cells; for increase in insulin secretion: increase over untreated cells
Description: Insulin Secretion Studies. INS-1 832/13 cells (kindly provided by Dr Christopher Newgard, Duke University, NC) (18) were routinely cultured in 5% CO2/air at 37° C. in RPMI-1640 medium containing 11.1 mM glucose and supplemented with 10% FBS (Fetal Bovine Serum), 10 mM HEPES, 100 U/ml penicillin, 100 μg/ml streptomycin, 4 mM Glutamine, 1 mM sodium pyruvate, and 50 μM 2-mercaptoethanol. Cells were passed weekly after trypsin-EDTA detachment. For static secretion studies, cells were plated on 24 well plates at a density of 0.64×10^6 cells per well and grown for 24 h. The cells were then cultured for an additional 24 h in RPMI-1640 containing 4 mM glucose and the supplements described above. Cells were then incubated twice for 30 min in Krebs Ringer Bicarbonate buffer (KRBB) containing 4 mM glucose and 0.1% BSA. Cells were rapidly washed with KRBB and incubated for 60 min KRBB containing 4 or 10 mM glucose with or without the indicated anthocyanins or anthocyanidins. The medium was then removed for determining insulin release. The cells were then washed twice with PBS and dissolved in 1 M NaOH. Cellular protein concentration was then determined by Lowry assay. Anthocyanins and anthocyanidins were dissolved in DMSO to obtain desired concentrations. Final concentration of DMSO was 0.1%. The insulin secreted into the medium by the cells was determined by radioimmuno assay and normalized to total cellular protein.
Radio Immuno Assay (RIA). The Kit for RIA was purchased from LINCO Research Inc. (St Charles, Mo.), and the assay was conducted according to the manufacturer's directions. Briefly, 0.1-10 ng of insulin standards (100 μl) were added to 12×75 mm test tubes. Similarly, samples (25 μl) from the insulin secretion studies were also added to the test tubes. To this, an aliquot (75 μl) of assay buffer was added. The ^125I labeled insulin (100 μl) was then added to each test tube. […] The tubes were then centrifuged and the radioactivity was measured using a gamma counter.
Lowry protein Assay. The amount of protein in the assay wells was determined by Lowry method (Francis, J. A., et al., Helv. Chim. Acta 87 317-326 (2004)). The Lowry assay solution was prepared by combining the Lowry solution, CuSO4.5H2O (1%), and sodium tartarate (1%). Briefly, the protein sample (100 μl) and Lowry mixture (1 mL) were mixed in a test tube (12×75). The Folin-Ciolatues reagent (100 μl) was added to these tubes, mixed, and incubated for 30 min at room temperature. The optical density of resulting solutions was read at 700 nm using a UV spectrophotometer.

[1] = mice; cited from earlier work
[2] = 4 mM glucose, 50 μg/mL compound
[3] = 10 mM glucose, 50 μg/mL compound

SMILES	insulin secreted (INS-1 832/13 cells; 4 mM glucose, 50 μg/mL compound, total secreted by treated cells)	fold increase in insulin secretion (INS-1 832/13 cells; [2]) [fold]	fold increase in insulin secretion (INS-1 832/13 cells; [3]) [fold]	effect on insulin secretion, result in words (INS-1 832/13 cells; 4 and 10 mM glucose)	effect on insulin secretion, result in words (INS-1 832/13 cells; 4 and 10 mM glucose, listed as delphinidin-3-glucoside)	effect on insulin secretion, result in words (INS-1 832/13 cells; [2])	increase in insulin secretion (INS-1 832/13 cells; [3])	insulin secreted (dose dependent assay) (INS-1 832/13 cells; 4 mM glucose, 5 μg/mL compound, untreated cells 33)	increase in insulin secretion (INS-1 832/13 cells; 4 mM glucose, 50 μg/mL compound, 60 min)	insulin secretion (dose dependent assay), result in words (INS-1 832/13 cells; 4 mM glucose, 10, 50, 100 and 250 μg/mL compound)	effect on insulin secretion, result in words (INS-1 832/13 cells; [3])	high fat diet induced obesity [1]
OC[C@H]1O[C@@H](Oc2cc3c(O)cc(O)cc3[o+]c2-c2cc(O)c(O)c(O)c2)[C@H](O)[C@@H](O)[C@@H]1O [Compound 2, delphinidin-3-glucoside]	49 ng/mg of protein	1.8	1.4	most effective insulin secretagogues	significantly induced the insulin secretion	–	–	–	–	–	–	–
OCC1OC(Oc2cc3c(O)cc(O)cc3[o+]c2-c2ccc(O)cc2)C(O)C(O)C1O (stereo not shown) [Compound 4, pelargonidin-3-galactoside]	–	–	–	did not induce insulin secretion	–	did not increase the insulin secretion	–	–	–	–	–	–
OC[C@H]1O[C@@H](Oc2cc3c(O)cc(O)cc3[o+]c2-c2ccc(O)c(O)c2)[C@H](O)[C@@H](O)[C@H]1O [Compound 3, cyanidin-3-galactoside]	–	–	1.2	significant increase in insulin secretion	–	did not increase the insulin secretion	17 ng/mg of protein	–	–	–	–	–
OC[C@H]1O[C@@H](Oc2cc3c(O)cc(O)cc3[o+]c2-c2ccc(O)c(O)c2)[C@H](O)[C@@H](O)[C@@H]1O [Compound 1, cyanidin-3-glucoside]	–	1.3	–	most effective insulin secretagogues	–	less active than delphinidin-3-glucoside	–	46 ng of insulin per mg protein	9 ng/mg of protein	no significant difference	more active	reduced
